The assay addresses T1, CFTR (Homo sapiens, UniProt P13569, DEL508-508).
T1 construct: Primary CF airway epithelial cells were obtained from the UNC Cystic Fibrosis Tissue Procurement and Cell Culture Core; host or cells: primary CF airway epithelial cells, differentiated at the air-liquid interface
The assay is described as follows: Equivalent current assay in primary CF airway epithelial cells (NAUC, combination with 1st site corrector FDL169 or VX-809). The settings on record: 37° C., 24 h. Type of assay: cell-based.

The mark [1] stands for this setting: test compound 1 μM in combination with 1st site corrector FDL169 (3 μM).
[2] abbreviates: test compound 3 μM in combination with 1st site corrector FDL169 (3 μM).
The mark [3] stands for this setting: test compound 10 μM in combination with 1st site corrector FDL169 (3 μM).
Where [4] appears, read: test compound 1 μM in combination with 1st site corrector VX-809 (3 μM).
[5] abbreviates: test compound 3 μM in combination with 1st site corrector VX-809 (3 μM).
Where [6] appears, read: test compound 10 μM in combination with 1st site corrector VX-809 (3 μM).

T1 sequence (P13569 with tags, fused parts or gaps DEL508-508): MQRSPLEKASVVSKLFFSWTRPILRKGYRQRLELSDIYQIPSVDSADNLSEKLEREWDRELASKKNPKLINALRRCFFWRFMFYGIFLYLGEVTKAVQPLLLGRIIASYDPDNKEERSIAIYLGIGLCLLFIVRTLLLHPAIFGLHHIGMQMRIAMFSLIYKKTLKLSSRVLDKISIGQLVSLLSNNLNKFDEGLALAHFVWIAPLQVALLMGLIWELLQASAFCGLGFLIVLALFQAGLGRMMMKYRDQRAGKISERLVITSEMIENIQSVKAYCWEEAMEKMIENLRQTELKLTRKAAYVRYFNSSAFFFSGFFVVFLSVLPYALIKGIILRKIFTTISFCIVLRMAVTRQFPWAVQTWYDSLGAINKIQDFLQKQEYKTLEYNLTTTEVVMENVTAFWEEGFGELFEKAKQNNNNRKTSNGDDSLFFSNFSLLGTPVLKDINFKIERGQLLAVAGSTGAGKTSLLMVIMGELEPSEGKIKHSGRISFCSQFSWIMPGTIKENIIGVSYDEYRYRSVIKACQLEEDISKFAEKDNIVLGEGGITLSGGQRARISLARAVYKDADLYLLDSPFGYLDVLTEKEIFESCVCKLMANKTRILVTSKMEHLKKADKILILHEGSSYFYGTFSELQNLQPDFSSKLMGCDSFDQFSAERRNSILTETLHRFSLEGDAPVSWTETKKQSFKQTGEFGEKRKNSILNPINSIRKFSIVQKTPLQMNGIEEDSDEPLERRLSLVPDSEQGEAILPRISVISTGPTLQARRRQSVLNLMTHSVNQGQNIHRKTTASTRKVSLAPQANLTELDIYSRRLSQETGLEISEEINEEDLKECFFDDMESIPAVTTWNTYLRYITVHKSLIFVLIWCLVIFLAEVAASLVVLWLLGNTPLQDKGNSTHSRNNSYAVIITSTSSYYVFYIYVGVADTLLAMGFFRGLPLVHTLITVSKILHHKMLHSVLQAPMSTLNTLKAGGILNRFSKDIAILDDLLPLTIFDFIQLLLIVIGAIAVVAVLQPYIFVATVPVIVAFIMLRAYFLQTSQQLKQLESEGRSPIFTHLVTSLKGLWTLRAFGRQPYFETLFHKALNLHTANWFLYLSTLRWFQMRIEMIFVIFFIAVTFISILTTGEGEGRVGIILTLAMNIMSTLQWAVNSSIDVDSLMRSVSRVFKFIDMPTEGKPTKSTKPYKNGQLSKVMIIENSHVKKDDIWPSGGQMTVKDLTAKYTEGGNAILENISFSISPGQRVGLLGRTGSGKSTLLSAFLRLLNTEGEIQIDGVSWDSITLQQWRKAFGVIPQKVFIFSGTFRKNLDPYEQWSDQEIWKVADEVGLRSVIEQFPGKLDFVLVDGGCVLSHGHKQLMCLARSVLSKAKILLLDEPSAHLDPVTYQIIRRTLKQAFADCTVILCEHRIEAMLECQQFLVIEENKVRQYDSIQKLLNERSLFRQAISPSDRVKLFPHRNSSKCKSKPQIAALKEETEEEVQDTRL

For the molecule `CC(C)(C)C(C)(C)CN(C(=O)[C@H]1[C@H]2C[C@](C)(O)CN2[C@]2(C(=O)Nc3c(Cl)cc(Cl)cc32)[C@H]1C(=O)O)c1cc(Cl)cc(Cl)c1` [Example 96], the “Nauc @ 1 μM” value under setting [1] is recorded as “+++ (NAUC “+++” refers to an observed NAUC>170% of positive control)”. In addition, the “Nauc @ 3 μM” value under setting [2] is on record as “+++ (NAUC “+++” refers to an observed NAUC>170% of positive control)”. Moreover, the “Nauc @ 10 μM” value under setting [3] is recorded as “+ (NAUC “+” refers to an observed NAUC <140% of positive control)”.
As for `CC(C)(C)CN(C(=O)[C@H]1[C@H]2CC(F)(F)CN2[C@]2(C(=O)Nc3c(Cl)cc(Cl)cc32)[C@H]1C(=O)O)c1cc(Cl)cc(Cl)c1` [Example 110, (1′R,2′S,3R,7a′R)-5,7-dichloro-1-((3,5-dichlorophenyl)(neopentyl)carbamoyl)-6′,6′-difluoro-2-oxo-1′,2′,5′,6′,7′,7a′-hexahydrospiro[indoline-3,3′-pyrrolizine]-2′-carboxylic acid], the “Nauc @ 1 μM” value under setting [1] was “+++ (NAUC “+++” refers to an observed NAUC>170% of positive control)”. Also, under setting [2], the “Nauc @ 3 μM” value is listed as “+++ (NAUC “+++” refers to an observed NAUC>170% of positive control)”. Besides, the “Nauc @ 10 μM” value under setting [3] was “+ (NAUC “+” refers to an observed NAUC <140% of positive control)”.
In the case of `O=C(O)[C@H]1[C@@H](C(=O)N(CC2CC2)c2cc(Cl)cc(Cl)c2)[C@H]2CC(F)(F)CN2[C@]12C(=O)Nc1c(Cl)cc(Cl)cc12` [Example 173], the “Nauc @ 1 μM” value under setting [1] was “+++ (NAUC “+++” refers to an observed NAUC>170% of positive control)”. Under setting [2], the “Nauc @ 3 μM” value is recorded as “+++ (NAUC “+++” refers to an observed NAUC>170% of positive control)”. Also, the “Nauc @ 10 μM” value under setting [3] is listed as “+ (NAUC “+” refers to an observed NAUC <140% of positive control)”.
On to `CN(O)C(=O)C1C(C(=O)Nc2cc(Cl)cc(Cl)c2)C2CC(F)(F)CN2C12C(=O)Nc1c(Cl)cc(Cl)cc12` (single isomer, unassigned) [Example 225b, 5,7-dichloro-N1′-(3,5-dichlorophenyl)-6′,6′-difluoro-N2′-hydroxy-N2′-methyl-2-oxo-1′,2′,5′,6′,7′,7a′-hexahydrospiro[indoline-3,3′-pyrrolizine]-1′,2′-dicarboxamide], for which the “Nauc @ 1 μM” value under setting [4] was “+ (NAUC “+” refers to an observed NAUC <140% of positive control)”. Under setting [5], the “Nauc @ 3 μM” value was “+++ (NAUC “+++” refers to an observed NAUC>170% of positive control)”. Also, the “Nauc @ 10 μM” value under setting [6] is “+++ (NAUC “+++” refers to an observed NAUC>170% of positive control)”.
Turning to `COc1c(Cl)cc(NC(=O)C2C3CC(C)(C)CN3C3(C(=O)Nc4c(Cl)cc(Cl)cc43)C2C(=O)O)cc1Cl` (stereo not drawn) [Example 14], the “Nauc @ 3 μM” value under setting [5] is recorded as “+++ (NAUC “+++” refers to an observed NAUC>170% of positive control)”. The “Nauc @ 10 μM” value under setting [6] was “+++ (NAUC “+++” refers to an observed NAUC>170% of positive control)”.
With `CC(C)(C)c1cccc(C2(CNC(=O)[C@H]3[C@H]4CC(F)(F)CN4C4(C(=O)Nc5c(Cl)cc(Cl)cc54)[C@H]3C(=O)O)CC2)c1` (stereo partly drawn) [Example 294], the “Nauc @ 1 μM” value under setting [4] is listed as “+ (NAUC “+” refers to an observed NAUC <140% of positive control)”. The “Nauc @ 3 μM” value under setting [5] is listed as “+++ (NAUC “+++” refers to an observed NAUC>170% of positive control)”. The “Nauc @ 10 μM” value under setting [6] is listed as “+++ (NAUC “+++” refers to an observed NAUC>170% of positive control)”.
With `CN(C)S(=O)(=O)NC(=O)C1C(C(=O)Nc2cc(Cl)cc(Cl)c2)C2C[C@](C)(O)CN2C12C(=O)Nc1c(Cl)cc(Cl)cc12` (stereo partly drawn) [Example 248, (6′S)-5,7-dichloro-N1′-(3,5-dichlorophenyl)-N2′-(N,N-dimethylsulfamoyl)-6′-hydroxy-6′-methyl-2-oxo-1′,2′,5′,6′,7′,7a′-hexahydrospiro[indoline-3,3′-pyrrolizine]-1,2′-dicarboxamide], the “Nauc @ 1 μM” value under setting [4] is “+ (NAUC “+” refers to an observed NAUC <140% of positive control)”. Besides, the “Nauc @ 3 μM” value under setting [5] was “+++ (NAUC “+++” refers to an observed NAUC>170% of positive control)”. In addition, under setting [6], the “Nauc @ 10 μM” value is on record as “+++ (NAUC “+++” refers to an observed NAUC>170% of positive control)”.
For `CCN(C(=O)[C@H]1[C@H]2CC(F)(F)CN2C2(C(=O)Nc3c(Cl)cc(Cl)cc32)[C@H]1C(=O)O)c1cc(Cl)cc(Cl)c1` (stereo partly drawn) [Example 289], the “Nauc @ 1 μM” value under setting [4] is “+++ (NAUC “+++” refers to an observed NAUC>170% of positive control)”. The “Nauc @ 3 μM” value under setting [5] was “+++ (NAUC “+++” refers to an observed NAUC>170% of positive control)”. The “Nauc @ 10 μM” value under setting [6] was “+++ (NAUC “+++” refers to an observed NAUC>170% of positive control)”.
Take `COc1cc(C(F)(F)F)cc(NC(=O)C2C3C[C@@](O)(C(F)(F)F)CN3C3(C(=O)Nc4c(Cl)cc(Cl)cc43)C2C(=O)O)n1` (stereo partly drawn) [Example 22]: under setting [5], the “Nauc @ 3 μM” value is on record as “++ (NAUC “++” refers to an observed NAUC 170-140% of positive control)”. Further, the “Nauc @ 10 μM” value under setting [6] is reported as “+++ (NAUC “+++” refers to an observed NAUC>170% of positive control)”.
On to `CN(O)C(=O)C1C(C(=O)Nc2cc(Cl)cc(Cl)c2)C2CCCN2C12C(=O)Nc1c(Cl)cc(Cl)cc12` (single isomer, unassigned) [Example 235b, 5,7-dichloro-N1′-(3,5-dichlorophenyl)-N2′-hydroxy-N2′-methyl-2-oxo-1′,2′,5′,6′,7′,7a′-hexahydrospiro[indoline-3,3′-pyrrolizine]-1′,2′-dicarboxamide], for which the “Nauc @ 1 μM” value under setting [4] is listed as “+++ (NAUC “+++” refers to an observed NAUC>170% of positive control)”. Besides, the “Nauc @ 3 μM” value under setting [5] is “+++ (NAUC “+++” refers to an observed NAUC>170% of positive control)”. In addition, under setting [6], the “Nauc @ 10 μM” value was “+++ (NAUC “+++” refers to an observed NAUC>170% of positive control)”.
On to `O=C(Nc1cncc(C(F)(F)F)n1)C1C2C[C@H](C(F)(F)F)CN2C2(C(=O)Nc3c(Cl)cc(Cl)cc32)C1C(=O)O` (stereo partly drawn) [Example 18], for which, under setting [5], the “Nauc @ 3 μM” value is on record as “+ (NAUC “+” refers to an observed NAUC <140% of positive control)”. Besides, the “Nauc @ 10 μM” value under setting [6] is on record as “+++ (NAUC “+++” refers to an observed NAUC>170% of positive control)”.
As to `O=C(NCCc1cccc(Cl)c1)C1C2CC(F)(F)CN2C2(C(=O)Nc3c(Cl)cc(Cl)cc32)C1C(=O)O` (stereo not drawn) [Example 51], the “Nauc @ 3 μM” value under setting [5] is on record as “+++ (NAUC “+++” refers to an observed NAUC>170% of positive control)”. The “Nauc @ 10 μM” value under setting [6] is on record as “+++ (NAUC “+++” refers to an observed NAUC>170% of positive control)”.
Turning to `O=C(Nc1cc(C(F)(F)F)ccn1)C1C2CCCN2C2(C(=O)Nc3c(Cl)cc(Cl)cc32)C1C(=O)O` (stereo not drawn) [Example 10], under setting [5], the “Nauc @ 3 μM” value is “++ (NAUC “++” refers to an observed NAUC 170-140% of positive control)”. Moreover, the “Nauc @ 10 μM” value under setting [6] is on record as “++ (NAUC “++” refers to an observed NAUC 170-140% of positive control)”.
As to `CC(C)(C)CN(C(=O)[C@H]1[C@@H](C(=O)O)[C@]2(C(=O)Nc3c(Cl)cc(Cl)cc32)N2CC(F)(F)C[C@@H]12)c1cc(Cl)cc(Cl)c1` [Example 111, (1′S,2′R,3S,7a′S)-5,7-dichloro-1-((3,5-dichlorophenyl)(neopentyl)carbamoyl)-6′,6′-difluoro-2-oxo-1′,2′,5′,6′,7′,7a′-hexahydrospiro[indoline-3,3′-pyrrolizine]-2′-carboxylic acid], the “Nauc @ 1 μM” value under setting [1] is recorded as “+ (NAUC “+” refers to an observed NAUC <140% of positive control)”. Further, under setting [2], the “Nauc @ 3 μM” value is “++ (NAUC “++” refers to an observed NAUC 170-140% of positive control)”.
On to `C[C@]1(O)C[C@@H]2[C@H](C(=O)Nc3cc(Cl)cc(Cl)c3)[C@H](C(N)=O)[C@@]3(C(=O)Nc4c(Cl)cc(Cl)cc43)N2C1` [Example 244, (1′R,2′S,6′S,7a′R)-5,7-dichloro-N1′-(3,5-dichlorophenyl)-6′-hydroxy-6′-methyl-2-oxo-1′,2′,5′,6′,7′,7a′-hexahydrospiro[indoline-3,3′-pyrrolizine]-1,2′-dicarboxamide], for which the “Nauc @ 1 μM” value under setting [4] was “+ (NAUC “+” refers to an observed NAUC <140% of positive control)”. The “Nauc @ 3 μM” value under setting [5] was “+ (NAUC “+” refers to an observed NAUC <140% of positive control)”. Besides, the “Nauc @ 10 μM” value under setting [6] is reported as “+ (NAUC “+” refers to an observed NAUC <140% of positive control)”.
For `O=C(Nc1cc(Cl)cc(Cl)c1)C1C(C(F)(F)c2cccc(Cl)c2)NC2(C(=O)Nc3c(Cl)cc(Cl)cc32)C1C(=O)O` (stereo not drawn) [Example 68.b], under setting [6], the “Nauc @ 10 μM” value is “+ (NAUC “+” refers to an observed NAUC <140% of positive control)”.
Consider `CN(C)CCN(C(=O)[C@H]1[C@H]2CC(F)(F)CN2[C@]2(C(=O)Nc3c(Cl)cc(Cl)cc32)[C@H]1C(=O)O)c1cc(Cl)cc(Cl)c1` [Example 160], for which the “Nauc @ 1 μM” value under setting [1] was “+ (NAUC “+” refers to an observed NAUC <140% of positive control)”. The “Nauc @ 3 μM” value under setting [2] is “+ (NAUC “+” refers to an observed NAUC <140% of positive control)”.
With `CC(C)(C)c1cccc(C(C)(C)CNC(=O)C2C3CC(F)(F)CN3C3(C(=O)Nc4c(Cl)cc(Cl)cc43)C2C(=O)O)c1` (single isomer, unassigned) [Example 288a, 1′-((2-(3-(tert-butyl)phenyl)-2-methylpropyl)carbamoyl)-5,7-dichloro-6′,6′-difluoro-2-oxo-1′,2′,5′,6′,7′,7a′-hexahydrospiro[indoline-3,3′-pyrrolizine]-2′-carboxylic acid], the “Nauc @ 1 μM” value under setting [4] was “+++ (NAUC “+++” refers to an observed NAUC>170% of positive control)”. Further, the “Nauc @ 3 μM” value under setting [5] is listed as “+++ (NAUC “+++” refers to an observed NAUC>170% of positive control)”. Further, the “Nauc @ 10 μM” value under setting [6] is on record as “+++ (NAUC “+++” refers to an observed NAUC>170% of positive control)”.
For the molecule `O=C(O)[C@H]1[C@@H](C(=O)N(CC2CC2)c2cccc(-c3ccccc3)c2)[C@H]2CC(F)(F)CN2[C@]12C(=O)Nc1c(Cl)cc(Cl)cc12` [Example 156], the “Nauc @ 1 μM” value under setting [1] is “+++ (NAUC “+++” refers to an observed NAUC>170% of positive control)”. Under setting [2], the “Nauc @ 3 μM” value is given as “+++ (NAUC “+++” refers to an observed NAUC>170% of positive control)”. Moreover, the “Nauc @ 10 μM” value under setting [3] is “++ (NAUC “++” refers to an observed NAUC 170-140% of positive control)”.

For the origin of these results see patent US20230055237A1, “COMPOUNDS AND METHODS FOR THE TREATMENT OF CYSTIC FIBROSIS” (Flatley Discovery Lab, LLC, priority 2019, published 2023).
